According to patent US20210330611A1, “THERAPY FOR NEUROLOGICAL DISEASES/DISORDERS” (priority 2020, published 2021):
Counter-ions that a name gives are not always drawn. Like-named read-outs stand apart in the source and are kept apart here.

Assays:
primary rat microglia [1] = test: Cell toxicity (dead cells, size <150 μm2) in coated fibrin (cFib) assay;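 further: share of dead cells sized under 150 µm2 at 10 µM in fibrin-stimulated microglia HTS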
primary rat microglia [2] = test: Cell toxicity (dead cells, size <150 μm2) in LPS assay
[3] = test system: fibrin-induced microglia activation; test: Image-based assay of fibrin-induced microglia activation (HTS and dose response); assay type: cell-based, rat; conditions: for inhibition at 10 µM: Rattus norvegicus, Microglia, read-out: Fibrin % inhibition
[4] = test system: fibrin- and LPS-induced microglia activation; test: cells; assay type: cell-based, rat
[5] = test system: LPS-induced microglia activation; test: Image-based assay of LPS-induced microglia activation (HTS and dose response); assay type: cell-based, rat; conditions: for inhibition at 10 µM: Rattus norvegicus, Microglia, read-out: LPS % inhibition
[6] = primary HTS, 10 μM, fibrin assay, dead cells size <150 μm2
[7] = primary HTS, 10 μM, LPS assay, dead cells size <150 μm2
[8] = primary HTS, 10 μM, fibrin-stimulated primary microglia
[9] = primary HTS, 10 μM, LPS-stimulated primary microglia
[10] = primary microglia HTS, 10 μM, fibrin assay, cell size <150 μm^2 as marker of toxicity
[11] = primary microglia HTS, 10 μM, LPS assay, cell size <150 μm^2 as marker of toxicity
[12] = primary microglia HTS, 10 μM, fibrin-stimulated, cell size >800 μm^2 as marker of activation
[13] = HTS of 1907 compounds, quadrant by fibrin and LPS inhibition
[14] = primary microglia HTS, 10 μM, LPS-stimulated, cell size >800 μm^2 as marker of activation
[15] = primary microglia HTS, fibrin stimulation, decreased size (<150 μm^2) as marker of toxicity
[16] = primary microglia HTS, LPS stimulation, decreased size (<150 μm^2) as marker of toxicity
[17] = primary microglia HTS, fibrin stimulation, increased cell size (>800 μm^2) as marker of activation
[18] = quadrant by fibrin and LPS inhibition in HTS of 1907 compounds
[19] = primary microglia HTS, LPS stimulation, increased cell size (>800 μm^2) as marker of activation
[20] = primary microglia HTS, fibrin stimulation, toxicity = cell size <150 μm2
[21] = primary microglia HTS, LPS stimulation, toxicity = cell size <150 μm2
[22] = primary microglia HTS, fibrin stimulation, activation = cell size >800 μm2
[23] = 48 h, primary microglia HTS, LPS stimulation, activation = cell size >800 μm2
[24] = 48 h, primary microglia HTS, LPS stimulation, increased cell size (>800 μm^2) as marker of activation

## CO/N=C(\C(=O)N[C@@H]1C(=O)N2C(C(=O)O)=C(CSC(=O)c3ccco3)CS[C@H]12)c1csc(N)n1 [Ceftiofur Hydrochloride]
Primary rat microglia [1]; [6]
  Fibrin % cell toxicity: 1%
Primary rat microglia [2]; [7]
  LPS % cell toxicity: 0%
[3]; [8]
  inhibition at 10 µM: 4%
[4]; primary HTS, 10 μM
  Quadrant (FIG. 5b): Q4
[5]; [9]
  inhibition at 10 µM: 14%

## O=C(O)C1CSCN1 (centres unmarked) [Timonacic]
Primary rat microglia [1]; [10]
  Fibrin % cell toxicity: 0%
Primary rat microglia [2]; [11]
  LPS % cell toxicity: 0%
[3]; [12]
  inhibition at 10 µM: -38%
[4]; [13]
  Quadrant (FIG. 5b): Q4
[5]; [14]
  inhibition at 10 µM: 19%

## COc1cc(/C=C/C(=O)N2CCCCCCC2)cc(OC)c1OC [Cinoctramide]
Primary rat microglia [1]; [15]
  Fibrin % cell toxicity: 4%
Primary rat microglia [2]; [16]
  LPS % cell toxicity: 1%
[3]; [17]
  Fibrin % inhibition: 90%
[4]; [18]
  Quadrant (FIG. 5b): Q2
[5]; [19]
  LPS % inhibition: 53%

## CCCCCN(CCCCC)C(=O)C(CCC(=O)O)NC(=O)c1ccc(Cl)c(Cl)c1 (centres unmarked) [Lorglumide Sodium]
Primary rat microglia [1]; [20]
  Fibrin % cell toxicity: 1%
Primary rat microglia [2]; [21]
  LPS % cell toxicity: 1%
[3]; [22]
  inhibition at 10 µM: -29%
[4]; [18]
  Quadrant (FIG. 5b): Q4
[5]; [23]
  inhibition at 10 µM: 13%

## C=C1/C(=C\C=C2/CCC[C@]3(C)[C@@H]([C@H](C)CCCC(C)(C)O)CC[C@@H]23)C[C@@H](O)C[C@@H]1O [Calcitriol]
Primary rat microglia [1]; [6]
  Fibrin % cell toxicity: 0%
Primary rat microglia [2]; [7]
  LPS % cell toxicity: 1%
[3]; [8]
  inhibition at 10 µM: -46%
[4]; primary HTS, 10 μM
  Quadrant (FIG. 5b): Q4
[5]; [9]
  inhibition at 10 µM: 0%

## C=C1CC[C@H](O)C/C1=C/C=C1\CCC[C@]2(C)[C@@H]([C@H](C)CCCC(C)(C)O)CC[C@@H]12 [Calcidiol]
Primary rat microglia [1]; [6]
  Fibrin % cell toxicity: 1%
Primary rat microglia [2]; [7]
  LPS % cell toxicity: 0%
[3]; [8]
  inhibition at 10 µM: 14%
[4]; primary HTS, 10 μM
  Quadrant (FIG. 5b): Q4
[5]; [9]
  inhibition at 10 µM: 8%

## CN1C(C(=O)Nc2ccccn2)=C(O)c2sc(Cl)cc2S1(=O)=O [Lornoxicam]
Primary rat microglia [1]; [15]
  Fibrin % cell toxicity: 0%
Primary rat microglia [2]; [16]
  LPS % cell toxicity: 1%
[3]; [17]
  inhibition at 10 µM: 22%
[4]; [18]
  Quadrant (FIG. 5b): Q4
[5]; [24]
  inhibition at 10 µM: 10%

## Cl.N[C@H]1C(O)O[C@H](CO)[C@@H](O)[C@@H]1O (some centres unmarked) [Glucosamine Hydrochloride]
Primary rat microglia [1]; [20]
  Fibrin % cell toxicity: 1%
Primary rat microglia [2]; [21]
  LPS % cell toxicity: 0%
[3]; [22]
  inhibition at 10 µM: -2%
[4]; [18]
  Quadrant (FIG. 5b): Q4
[5]; [23]
  inhibition at 10 µM: 19%

## COc1ccccc1O [Guaiacol]
Primary rat microglia [1]; [20]
  Fibrin % cell toxicity: 0%
Primary rat microglia [2]; [21]
  LPS % cell toxicity: 0%
[3]; [22]
  inhibition at 10 µM: -51%
[4]; [18]
  Quadrant (FIG. 5b): Q4
[5]; [23]
  inhibition at 10 µM: 11%

## CCN[C@H]1CN(CCCOC)S(=O)(=O)c2sc(S(N)(=O)=O)cc21 [Brinzolamide]
Primary rat microglia [1]; [6]
  Fibrin % cell toxicity: 0%
Primary rat microglia [2]; [7]
  LPS % cell toxicity: 0%
[3]; [8]
  inhibition at 10 µM: -3%
[4]; primary HTS, 10 μM
  Quadrant (FIG. 5b): Q4
[5]; [9]
  inhibition at 10 µM: 5%

## CCN(CC)CCOCCOC(=O)C(CC)(CC)c1ccccc1 [Oxeladin]
Primary rat microglia [1]; [15]
  Fibrin % cell toxicity: 1%
Primary rat microglia [2]; [16]
  LPS % cell toxicity: 0%
[3]; [17]
  inhibition at 10 µM: -27%
[4]; [18]
  Quadrant (FIG. 5b): Q4
[5]; [24]
  inhibition at 10 µM: 6%

## NC(=O)c1cc([N+](=O)[O-])cc([N+](=O)[O-])c1 [Nitromide]
Primary rat microglia [1]; [15]
  Fibrin % cell toxicity: 0%
Primary rat microglia [2]; [16]
  LPS % cell toxicity: 0%
[3]; [17]
  Fibrin % inhibition: −7%
[4]; [18]
  Quadrant (FIG. 5b): Q4
[5]; [19]
  LPS % inhibition: 11%

## O=C(O)c1cc(/N=N/c2ccc(O)c(C(=O)O)c2)ccc1O [Olsalazine]
Primary rat microglia [1]; [15]
  Fibrin % cell toxicity: 1%
Primary rat microglia [2]; [16]
  LPS % cell toxicity: 1%
[3]; [17]
  inhibition at 10 µM: -36%
[4]; [18]
  Quadrant (FIG. 5b): Q4
[5]; [24]
  inhibition at 10 µM: 22%

## COc1ccc2[nH]c([S+]([O-])Cc3ncc(C)c(OC)c3C)nc2n1 (centres unmarked) [Tenatoprazole]
Primary rat microglia [1]; [10]
  Fibrin % cell toxicity: 1%
Primary rat microglia [2]; [11]
  LPS % cell toxicity: 0%
[3]; [12]
  inhibition at 10 µM: -17%
[4]; [13]
  Quadrant (FIG. 5b): Q4
[5]; [14]
  inhibition at 10 µM: 9%

## CC1=C(C(=O)O)N2C(=O)[C@@H](NC(=O)[C@H](N)c3ccc(O)cc3)[C@H]2SC1 [Cefadroxil]
Primary rat microglia [1]; [6]
  Fibrin % cell toxicity: 0%
Primary rat microglia [2]; [7]
  LPS % cell toxicity: 0%
[3]; [8]
  inhibition at 10 µM: 1%
[4]; primary HTS, 10 μM
  Quadrant (FIG. 5b): Q4
[5]; [9]
  inhibition at 10 µM: 3%

## C[C@H](CCC(=O)O)[C@H]1CC[C@H]2[C@@H]3[C@H](O)C[C@@H]4C[C@H](O)CC[C@]4(C)[C@H]3CC[C@]12C [Chenodiol]
Primary rat microglia [1]; [6]
  Fibrin % cell toxicity: 0%
Primary rat microglia [2]; [7]
  LPS % cell toxicity: 0%
[3]; [8]
  inhibition at 10 µM: -32%
[4]; primary HTS, 10 μM
  Quadrant (FIG. 5b): Q4
[5]; [9]
  inhibition at 10 µM: 4%

## C/C(=C\C(=O)OCCCCCCCCC(=O)O)C[C@@H]1OC[C@H](C[C@@H]2O[C@H]2[C@@H](C)[C@H](C)O)[C@@H](O)[C@H]1O [Mupirocin]
Primary rat microglia [1]; [15]
  Fibrin % cell toxicity: 1%
Primary rat microglia [2]; [16]
  LPS % cell toxicity: 0%
[3]; [17]
  inhibition at 10 µM: 11%
[4]; [18]
  Quadrant (FIG. 5b): Q4
[5]; [24]
  inhibition at 10 µM: 20%

## CC[C@H](C)[C@H](N)C(=O)O [L-Isoleucine]
Primary rat microglia [1]; [20]
  Fibrin % cell toxicity: 0%
Primary rat microglia [2]; [21]
  LPS % cell toxicity: 0%
[3]; [22]
  inhibition at 10 µM: -35%
[4]; [18]
  Quadrant (FIG. 5b): Q4
[5]; [23]
  inhibition at 10 µM: 17%

## CCN1CCC[C@H]1CNC(=O)c1cc(S(N)(=O)=O)ccc1OC [Levosulpiride]
Primary rat microglia [1]; [20]
  Fibrin % cell toxicity: 1%
Primary rat microglia [2]; [21]
  LPS % cell toxicity: 0%
[3]; [22]
  inhibition at 10 µM: -36%
[4]; [18]
  Quadrant (FIG. 5b): Q4
[5]; [23]
  inhibition at 10 µM: 18%

## Chlorophyllide Cu Complex Na Salt
Primary rat microglia [1]; [6]
  Fibrin % cell toxicity: 0%
Primary rat microglia [2]; [7]
  LPS % cell toxicity: 0%
[3]; [8]
  Fibrin % inhibition: −36%
[4]; primary HTS, 10 μM
  Quadrant (FIG. 5b): Q4
[5]; [9]
  LPS % inhibition: 9%

## O=C([O-])C(O)[C@H](O)[C@@H](O)[C@H](O)[C@H](O)CO.O=C([O-])C(O)[C@H](O)[C@@H](O)[C@H](O)[C@H](O)CO.[Ca+2] (some centres unmarked) [Calcium Gluceptate]
Primary rat microglia [1]; [6]
  Fibrin % cell toxicity: 1%
Primary rat microglia [2]; [7]
  LPS % cell toxicity: 0%
[3]; [8]
  Fibrin % inhibition: 8%
[4]; primary HTS, 10 μM
  Quadrant (FIG. 5b): Q4
[5]; [9]
  LPS % inhibition: 8%

## CC(=O)N(CC(O)CN(C(C)=O)c1c(I)c(C(=O)NCC(O)CO)c(I)c(C(=O)NCC(O)CO)c1I)c1c(I)c(C(=O)NCC(O)CO)c(I)c(C(=O)NCC(O)CO)c1I (centres unmarked) [Iodixanol]
Primary rat microglia [1]; [20]
  Fibrin % cell toxicity: 0%
Primary rat microglia [2]; [21]
  LPS % cell toxicity: 0%
[3]; [22]
  inhibition at 10 µM: -15%
[4]; [18]
  Quadrant (FIG. 5b): Q4
[5]; [23]
  inhibition at 10 µM: 10%

## Cc1nc(C)c(Cl)c(O)c1Cl [Clopidol]
Primary rat microglia [1]; [6]
  Fibrin % cell toxicity: 1%
Primary rat microglia [2]; [7]
  LPS % cell toxicity: 0%
[3]; [8]
  inhibition at 10 µM: -41%
[4]; primary HTS, 10 μM
  Quadrant (FIG. 5b): Q4
[5]; [9]
  inhibition at 10 µM: 9%

## COc1ccc(C(=O)c2ccc(C)cc2)c(O)c1 [Mexeneone]
Primary rat microglia [1]; [15]
  Fibrin % cell toxicity: 1%
Primary rat microglia [2]; [16]
  LPS % cell toxicity: 0%
[3]; [17]
  Fibrin % inhibition: −8%
[4]; [18]
  Quadrant (FIG. 5b): Q4
[5]; [19]
  LPS % inhibition: 9%

## CNC1(c2ccccc2Cl)CCCCC1=O (centres unmarked) [Ketamine]
Primary rat microglia [1]; [20]
  Fibrin % cell toxicity: 1%
Primary rat microglia [2]; [21]
  LPS % cell toxicity: 0%
[3]; [22]
  inhibition at 10 µM: -86%
[4]; [18]
  Quadrant (FIG. 5b): Q4
[5]; [23]
  inhibition at 10 µM: -2%

## Cc1ccc(O)cc1 [P-Cresol]
Primary rat microglia [1]; [15]
  Fibrin % cell toxicity: 0%
Primary rat microglia [2]; [16]
  LPS % cell toxicity: 0%
[3]; [17]
  Fibrin % inhibition: −15%
[4]; [18]
  Quadrant (FIG. 5b): Q4
[5]; [19]
  LPS % inhibition: 15%

## CCC[C@@H]1C[C@@H](C(=O)N[C@@H]([C@H]2O[C@H](SC)[C@H](O)[C@@H](O)[C@H]2O)[C@@H](C)O)N(C)C1 [Lincomycin]
Primary rat microglia [1]; [20]
  Fibrin % cell toxicity: 1%
Primary rat microglia [2]; [21]
  LPS % cell toxicity: 0%
[3]; [22]
  Fibrin % inhibition: −29%
[4]; [18]
  Quadrant (FIG. 5b): Q4
[5]; primary microglia HTS, LPS stimulation, activation = cell size >800 μm2
  LPS % inhibition: −5%

## Cc1cnc(NC(=O)C2=C(O)c3ccccc3S(=O)(=O)N2C)s1 [Meloxicam]
Primary rat microglia [1]; [15]
  Fibrin % cell toxicity: 1%
Primary rat microglia [2]; [16]
  LPS % cell toxicity: 0%
[3]; [17]
  inhibition at 10 µM: -1%
[4]; [18]
  Quadrant (FIG. 5b): Q4
[5]; [24]
  inhibition at 10 µM: 20%
